This is an account of results in patent publication US10854312B2, “Selective peptide antagonists” (BIONIZ, LLC, priority 2013, dated 2020).

What all share (assay type): cell-based
For assay [1], the system named is human IL-2. Description: CTLL-2 proliferation assay (WST-1), IL-2. The following applies: IL-2 5 and 10 units/ml, BNZ132-PEG-130 0.1-10 μM, WST-1. The method, then:
(§1) FIG. 6A-FIG. 6E presents inhibitory spectrum of BNZ132-1 over γc- and non-γc-cytokines. […] Neutralizing antibodies against each cytokine (R & D systems, 5 μg ml^−1) were included as controls. After 20 h, the cells were pulsed with WST-1 (Clontech) and OD450 of each well was measured after 6 h. A 19-mer scrambled peptide was used as a negative control at 5 μM. The experiments were conducted in triplicate (applies to all experiments in FIG. 6A-FIG. 6E). The result represents one of at least three independent experiments (applies to all experiments in FIG. 6A-FIG. 6E). […] In PT-18 proliferation assay, PT-18β or PT-18h21Rα cells were withdrawn of mouse IL-3 for 12 h before the experiment. Cells were then incubated with 1 nM of mouse IL-4, mouse IL-9, or mouse IL-21 in the presence or absence of the indicated doses (μM) of BNZ132-1. Neutralizing antibodies to each cytokine (5 μg ml^−1, except for anti-mouse IL-21 polyclonal antibody which was used at 15 μg ml−1) and a scrambled control peptide (5 μM) were included as negative controls. WST-1 assay was conducted as described above. […] In PT-18 h21Rα survival assay, PT-18h21Rα cells are described in the text. […] Both parental and hIL-21Rα positive PT-18 cells were washed and incubated without IL-3 for 12 h before the assay. […] The Y-axis represents the cpm (count per minute) values measured by a β-counter. […]
Background: Tetrazolium dyes change colour on reduction, which living cells bring about.

Assay [2] relates to human IL-15. The experiment in a line: CTLL-2 proliferation assay (WST-1), IL-15. The following applies: IL-15 2.5 and 5 ng/ml, BNZ132-PEG-130 0.1-10 μM, WST-1. The method, then:
as §1

The test system of assay [3] is IL-6. The experiment in a line: T1165 cell proliferation assay, IL-6. The following applies: IL-6 0.1 ng/ml, BNZ132-PEG-130 0.1-10 μM, 24 hours, WST-1. The procedure: CTLL2 cells are cultured in the presence of 5 u/ml and 10 u/ml of IL-2 (FIG. 10A) and 2.5 ng/ml and 5 ng/ml of IL-15 (FIG. 10B) in the presence of increasing concentration of BNZ132-PEG-130. T1165 cells are cultured with 0.1 ng/ml of IL-6 (FIG. 10C) and increasing concentration of BNZ132-PEG-130. […] BNZ132-1 was conjugated to BNZ130 via a PEG24 linker. The name of the bi-antagonist peptide is BNZ132-PEG-130. FIG. 10A and FIG. 10B show the results of BNZ132-PEG-130 in IL-2 (FIG. 10A) and IL-15 (FIG. 10B) CTLL2 proliferation assay. Cells were washed and incubated with IL-2 (5 and 10 units/ml), IL-15 (2.5 and 5 ng/ml) in the presence or absence of BNZ132-PEG-130 (0.1-10 μM). Cells were then pulsed with the WST-1 reagent to measure the proliferative response for the next 6 hr (OD450). […] Cells are washed and incubated with IL-6 (0.1 ng/ml) in the presence or absence of BNZ132-PEG-130 (0.1-10 μM) for 24 hours. Cells were then pulsed with WST-1 reagent for the following 6 hr to measure OD450. The BNZ130-1 polypeptide as presented in Table 2, above, is tested for its activity in inhibiting IL-6 activity. T1165 cells that are dependent on human or mouse IL-6 for their growth in vitro are selected. The cell line is cultured in the absence of IL-6, In the presence of IL-6, in the presence of BNZ130-1, and in the presence of IL-6 and BNZ130-1.

“Also recorded” adds a separate entry of the source. No end group written: not given here. MAL‑PEG24 = bi-functional PEG24 molecule (Mal-PEG24)

On to “IKEFLQSFIHIVQSIINT (SEQ ID NO: 130)—MAL-PEG24—SLTHLIERSSRAVLQSLLRASRQ (SEQ ID NO: 131) (linker (positions not given here) via MAL‑PEG24; also: MAL-PEG24 linker joins the two peptides, attachment points not given here) [BNZ132-PEG-130, BNZ132-1 conjugated to BNZ130 via a PEG24 linker; dual peptide antagonist]”, for which the “inhibition of IL-2-induced proliferation of CTLL2 cells” value in assay [1] is “inhibiting; also recorded: inhibited in a dose response manner”. Further, in assay [2], the “inhibition of IL-15-induced proliferation of CTLL2 cells” value was “inhibiting; also recorded: inhibited in a dose response manner”. In addition, the “inhibition of IL-6-induced proliferation of T1165 cells” value in assay [3] is given as “inhibiting; also recorded: inhibited in a dose response manner”.
